From US20050170359A1, “Treatment of vascular dysfunction and alzheimer's disease” (priority 2002, published 2005)
Entries after “also recorded” stand apart in the source; their conditions may differ. Peptide text beside a SMILES is read from it. * marks the point of attachment. Cbz = O=C(OCc1ccccc1)*; CH2F = FC*

How the values were obtained:
SIPS BEC = experiment: Capillary morphogenesis in 3-D collagen gels by H2O2 stress-induced premature senescence (SIPS) BEC; assay type: cell-based, human
Procedure: The 3-D system has been described in detail by Davis et al. (J. Cell Sci. 114:917-930, 2001). Here, the system was used to assay the responsiveness of AD BEC and SIPS BEC to angiogenic stimulation. Briefly, 10^6 MBEC/ml were suspended within 3-D collagen matrices at 25 μl per well in the serum-free culture medium 199 containing VEGF (40 ng/ml) and bFGF (40 ng/ml) in 5% CO2 at 37° C. The cells were fixed with 3% glutaraldehyde in phosphate buffered saline. The sections were stained with hematoxylin/eosin and Hoechst 33342. The formation of intracellular vacuoles (stage I), tubules (stage II), and multicellular tubes and networks (stage III) were determined at 4 hr to 16 hr and 24 hr, respectively. The number of apoptotic cells were determined between 4 hr and 24 hr using double TUNEL/Hoechst staining. At least 200 cells were evaluated from an individual well. […] was quantified at 200 X magnification by counting four fields derived from triplicate wells. Subconfluent BEC cultures (34 days after subculture) were treated with H2O2 by adding it to the culture medium for 2 hr. To induce senescence, sublethal doses of H2O2 were determined and selected. […] H2O2-treated cells were subcultured and analyzed after 1, 2, 3, 4, 5, 6, 24, 48, 72, 96 and 120 hr for expression of different proteins involved in the cell cycle regulation and apoptosis. […]

BEC = experiment: H2O2 model of stress-induced premature senescence in young human BEC; assay type: cell-based
Procedure: Subconfluent BEC cultures (34 days after subculture) were treated with H2O2 by adding it to the culture medium for 2 hr. To induce senescence, sublethal doses of H2O2 were determined and selected. After treatment, cells were washed with PBS (37° C.) before harvesting, subculturing or incubating with a fresh medium or 3-D collagen gels. H2O2-treated cells were subcultured and analyzed after 1, 2, 3, 4, 5, 6, 24, 48, 72, 96 and 120 hr for expression of different proteins involved in the cell cycle regulation and apoptosis. Cells in 60 mm dishes were lysed in SDS sample buffer directly. For Western blot analysis, proteins were separated by SDS-PAGE and transferred to PVDF membrane followed by incubation with different primary antibodies (see antibodies for.Western blot analysis). SIPS BEC were also prepared for microarray analysis on U95A chips as described above.

AMC BEC = experiment: Tube formation in 2-D collagen matrigels, age-matched control BEC; assay type: cell-based, human; conditions: 10 μM
Procedure: In 3D collagen gels (as described in FIG. 1), BEC that reached greater than 90% replicative senescence (RS) or were exposed to H2O2 (SIPS) formed an insignificant number of tubes (FIGS. 11A-11B, bar=50 μm). Total tube length—control BEC (arbitrarily taken as 100%) were compared to RS and SIPS BEC (FIG. 11C). The effect of SB202190 (SB, 10 μM for 1 hr) on SIPS-induced aberrant angiogenesis. Mean±s.e., n=9 assays per group from three different cases/group. In 2D collagen matrigels (growth factors per BD Biosciences, Bedford, Mass.), SB202190 (SB, 10 μM) increased the number of tubes in early passage AD BEC (FIGS. 11D-11E, bar=50 μm). SB202190 (SB, 10 μM) increases total tube length in both AMC and AD BEC (FIG. 11F). Mean±s.e., n=6-9 assays per group from two AMC and three AD cases.
In the 2-D system, collagen matrigels of matrix composition containing a supplement of growth factors were used according to manufacturer's instructions (BD Biosciences, Bedford, Mass.). In the 2-D matrix system, 2×10^4 cells/well were plated.
(§1) ZVAD-fmk (50 μM, Sigma), p38 MAPK antagonists including SB SB202190 (SB, 10 μM), and plasma-derived activated protein C (APC, prepared by Dr. J. H. Griffin's laboratory, 5-100 nM) were used.

AD BEC [1] = experiment: Tube formation in 2-D collagen matrigels, AD BEC; assay type: cell-based, human; conditions: 10 μM
Procedure: AD or age-matched control (AMC) BEC (2×10^4 cells/well) were plated in 2-D collagen matrigels (growth factors per BD Biosciences, Bedford, Mass.) and treated with 100 nM APC or vehicle (−APC). Total tube length was determined at 24 hr (FIG. 6A). Mean±s.e., n=30 to 40 assays per group from four AD and three AMC cases. AD or AMC BEC were treated with 100 nM APC, 100 nM boiled (B) APC, 100 nM serine mutant (M) APC, or vehicle (−APC) for 24 hr. Total tube length was determined at 24 hr (FIG. 6B). Mean±s.e., n=10 assays per group from one AD and one AMC case. % TUNEL-positive BEC at 4 hr during AD-mediated or AMC-mediated capillary morphogenesis in the presence of 100 nM APC or vehicle (−APC) was calculated (FIG. 6C). Mean±s.e., n=20 assays per group from two AD and two AMC cases. % Caspase-3-positive BEC at 4 hr of brain capillary morphogenesis in AD or AMC treated with 100 nM APC or vehicle (−APC) was calculated (FIG. 6D). Mean±s.e., n=20 assays per group from two AD and two AMC cases. AD BEC (3×10^4) cells were assayed for migration in a modified Boyden chamber in the presence of vehicle (−APC), 100 nM APC, anti-APC C3 monoclonal antibody (200 μg/ml), or anti-APC+APC after 6 hr of incubation (FIG. 6E). Mean±s.e., n=6 assays per group from two AD cases. […]

AD BEC [2] = experiment: Brain capillary morphogenesis in 3-D collagen matrices (VEGF/bFGF) mediated by AD BEC; assay type: cell-based, human; conditions: zVAD-fmk 50 μM, 24 hr, VEGF and bFGF 40 ng/ml
Procedure: (§2) The 3-D system has been described in detail by Davis et al. (J. Cell Sci. 114:917-930, 2001). Here, the system was used to assay the responsiveness of AD BEC and SIPS BEC to angiogenic stimulation. Briefly, 10^6 MBEC/ml were suspended within 3-D collagen matrices at 25 μl per well in the serum-free culture medium 199 containing VEGF (40 ng/ml) and bFGF (40 ng/ml) in 5% CO2 at 37° C. The cells were fixed with 3% glutaraldehyde in phosphate buffered saline. The sections were stained with hematoxylin/eosin and Hoechst 33342. The formation of intracellular vacuoles (stage I), tubules (stage II), and multicellular tubes and networks (stage III) were determined at 4 hr to 16 hr and 24 hr, respectively. The number of apoptotic cells were determined between 4 hr and 24 hr using double TUNEL/Hoechst staining. At least 200 cells were evaluated from an individual well. […] was quantified at 200 X magnification by counting four fields derived from triplicate wells.
as §1

caspase 3 = experiment: Western blot of activated caspase-3 in AD BEC lysates during capillary morphogenesis; assay type: cell-based, human; conditions: zVAD-fmk 50 μM, 24 hr
Procedure: Cell lysates were prepared from subconfluent BEC cultures, BEC at different stages of capillary morphogenesis or BEC exposed to SIPS (see below H2O2 model of SIPS). Antibodies for Western blot analysis included caspase 3, rabbit anti-human polyclonal, 1:100 (0.5 mg/ml, BD PharMingen); p53, mouse anti-human monoclonal, 1:200 (0.1 mg/ml, Oncogene); p16, mouse anti-human monoclonal, 1:250 (0.5 mg/ml, BD ParMingen); p21, mouse anti-human, 1:200 (0.4 mg/ml, Oncogene); Rb (Santa Cruz), p27 (Santa Cruz), fibronectin (Santa Cruz), PAI-1 (Santa Cruz) or phosphorylated p38 MAPK; gax, rabbit polyclonal against C-terminal region of the rat gax protein (amino acids SDHSSEHAHL), 1:500 (7 mg/ml, provided by Dr Kenneth Walsh); and β-actin, goat anti-human polyclonal, 1:2,500 (0.2 mg/ml, Santa Cruz Biotechnology). The secondary antibody was HRP-conjugated and peroxidase activity was detected with enhanced chemiluminescence detection kit (ECL, Pierce). The relative abundance of the primary antigen was determined by scanning densitometry using β-actin as an internal control.

AD BEC [3] = experiment: Apoptosis (TUNEL, caspase-3 positive cells) during AD BEC-mediated capillary morphogenesis; assay type: cell-based, human
Procedure: as §2
Staining with APO-BRDU kit was performed according to manufacturer's instructions (Phoenix Flow Systems).

Structure (SMILES): OO [H2O2]
- number of tubes formed by H2O2-treated (SIPS) BEC (SIPS BEC; compared to untreated normal control cells): form an insignificant number of tubes
- senescent phenotype (G1 arrest, flattened morphology, SA-β-gal) (BEC; 300 μM for 2 hr, within 48 hr): developed a senescent phenotype
- BEC apoptosis (BEC; concentrations higher than 300 μM, not shown): resulted in BEC apoptosis

Structure (SMILES): Oc1ccc(-c2nc(-c3ccncc3)c(-c3ccc(F)cc3)[nH]2)cc1 [SB202190]
- augmentation of total tube length in the SIPS model (SIPS BEC; preincubation 10 μM for 1 hr, 3D collagen gels): ~5 fold
- total tube length, AMC BEC (AMC BEC): increases
- number of tubes in early passage AD BEC (AD BEC [1]): completely restored; also recorded: increased
- total tube length, AD BEC (AD BEC [1]): increases

Structure (SMILES): COC(=O)C[C@H](NC(=O)[C@H](C)NC(=O)[C@@H](NC(=O)OCc1ccccc1)C(C)C)C(=O)CF [zVAD-fmk] (Cbz-Val-Ala-Asp(OMe)-CH2F)
- number of tubes (AD BEC [2]): restored
- total tube length (AD BEC [2]): restored
- number of tubes (AD BEC [2]; listed as zVAD): restoration
- total tube length (AD BEC [2]; listed as zVAD): restoration
- levels of activated form of caspase-3 (caspase 3): preventing the formation of the active form of caspase 3; also recorded: reduced
- apoptosis in AD BEC (AD BEC [3]; during AD BEC-mediated capillary morphogenesis): prevents apoptosis
- number of apoptotic AD BEC by TUNEL staining (AD BEC [3]; zVAD, data not shown): decreased
